Three compounds from patent US7713972B2, “Imidazotriazinone derivatives as PDE 7 (phosphodiesterase 7) inhibitors” (Asubio Pharma Co., Ltd., priority 2003, dated 2010) can be followed below.

The target of the assay is T1, PDE 7 (phosphodiesterase VII) (Homo sapiens, UniProt Q13946).
T1 construct: endogenous in cells; host or cells: MOLT-4 (ATCC CRL-1582), soluble fraction, HiTrap Q column, fraction eluting at about 350 mM NaCl
The experiment in a line: PDE 7 inhibiting effect (Biological Test 1; 3H-cAMP hydrolysis by PDE 7 active fraction from MOLT-4 cells). Format: biochemical. The settings on record: PDE 7 fraction from MOLT-4 cells; 0.064 μM cAMP, 10 μM rolipram present, 2 hours at 25° C.; read-out: PDE 7 inhibiting activities, IC50. The method, then:
The PDE 7 (phosphodiesterase VII) inhibiting effect of the compounds of the present invention was performed by the following method, which was modified assay method described in Biochemical. Pharmacol. 48(6), 1219-1223 (1994).
(1) The active fraction of PDE 7 (phosphodiesterase VII) was obtained. That is, MOLT-4 (obtainable from ATCC as ATCC No. CRL-1582), which was cell line of human acute lymphoblastic lymphoma T cells, was incubated in RPMI1640 culture medium containing 10% fetal bovine serum to obtain 5×10^8 MOLT-4 cells. The cells were collected by centrifugation and suspended with 10 mL of buffer solution A [25 mM of tris-HCl, 5 mM of 2-mercaptoethnol, 2 mM of benzamidine, 2 mM of EDTA, 0.1 mM of 4-(2-aminoethyl) benzensulfonyl hydrochloride; pH 7.5], then homogenized by Polytron® homogenizer. The homogenate were centrifuged under 25,000×G for 10 minutes at 4° C. The supernatant was separated and thus obtained supernatant was further centrifuged under 100,000×G for 60 minutes at 4° C., and then filtrated with 0.2 μm filter to obtain the soluble fraction. (2) The obtained soluble fraction was filled in equilibrium HiTrap Q column (5 mL×2) with buffer solution A, and phosphodiesterase fractions were eluted by 300 mL of buffer solution A with linear gradient from 0 to 0.8 M NaCl concentration. 5 ml each of 60 eluents were collected, and each eluents were examined for cyclic AMP metabolic activities of phosphodiesterase. The fraction eluting with about 350 mM NaCl concentration parts, where metabolic activities were not inactivated by 10 μM of rolipram (selective inhibitor for phosphodiesterase IV) and 10 μM of milrinone (selective inhibitor for phosphodiesterase III), were collected as storage solution for using to test PDE 7 inhibiting effect. […] Further, SEPHADEX®-QAE (cross-linked dextran gel) was added to the obtained supernatant and the mixture was leaved at rest for 5 minutes, then, the radioactivity of the solution was measured. […]

T1 sequence (Q13946 whole entry): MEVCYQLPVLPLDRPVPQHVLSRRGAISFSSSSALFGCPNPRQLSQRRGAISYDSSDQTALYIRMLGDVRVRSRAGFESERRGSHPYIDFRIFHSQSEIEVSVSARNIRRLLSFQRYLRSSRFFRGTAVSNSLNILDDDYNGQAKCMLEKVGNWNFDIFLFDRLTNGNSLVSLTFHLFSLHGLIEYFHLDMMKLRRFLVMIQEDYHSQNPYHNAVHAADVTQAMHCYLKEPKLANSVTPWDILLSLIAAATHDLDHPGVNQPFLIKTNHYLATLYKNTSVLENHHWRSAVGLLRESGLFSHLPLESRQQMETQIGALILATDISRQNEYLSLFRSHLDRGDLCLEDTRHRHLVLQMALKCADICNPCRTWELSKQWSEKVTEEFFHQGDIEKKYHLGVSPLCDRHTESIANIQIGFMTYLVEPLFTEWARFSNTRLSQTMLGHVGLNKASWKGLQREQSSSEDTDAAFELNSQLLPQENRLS

For `COc1ccccc1-c1nn2c(C)nc(C3CCCCC3)c2c(=O)[nH]1` [Compound 12, 5-Cyclohexyl-2-(2-methoxyphenyl)-7-methylimidazo-[5,1-f][1,2,4]triazin-4(3H)-one], the half-inhibitory concentration (IC50) stood at 490 nM.

Regarding `COc1cc(N2CCN(C)CC2)ccc1-c1nc2c(C)nc(C3CCCCC3)n2c(=O)[nH]1` [Compound 11, 6-Cyclohexyl-2-[2-methoxy-4-(4-methyl-1-piperadinyl)phenyl]-8-methylimidazo[1,5-a][1,3,5]triazin-4(3H)-one], the IC50 was found to be 55 nM.

In the case of `COc1ccccc1-c1nc2c(C)nc(C3CCCCC3)n2c(=O)[nH]1` [Compound 8, 6-Cyclohexyl-2-(2-methoxyphenyl)-8-methylimidazo[1,5-a][1,3,5]-triazin-4(3H)-one], the IC50 stood at 340 nM.

A word on the IC50: it is the concentration that inhibits the measured activity by half.
